Drawing on patent publication US20020059032A1, “Rational selection of putative peptides from identified nucleotide or peptide sequences” (priority 1999, published 2002), this text covers IC50 for 19 compounds.

Where a SMILES comes first, the peptide text is derived from it.

For this experiment, the target named is guinea pig brain membranes. The experiment is described as follows: Binding test with guinea pig brain membranes. Particulars: tested on guinea pig brain membranes; read-out: IC50 = 100 μM. The method, then:
Binding Assay Alternative Protocol by Skatron
The experimental conditions are identical for all the binding assay protocols except for the fact that: i) the volume R in operation is 200 μl; ii) the test carried out in 96-well Falcon plates iii) the reaction is directly stopped by filtration on filterMat (ref. 11734) Skatron and the radioactivity associated with the filtrate is evaluated: either directly with a γ counter for the peptides labelled with […]: or with a […] in the presence of 5 ml of scintillating liquid.
Membrane Preparations of Guinea Pig Brains and Binding Assay
The guinea pigs are sacrificed by rupturing their cervical vertibrae, decapitated, and the brains are removed very rapidly and placed into a sucrose-Tris-HCl buffer (0.32 M sucrose 5 mM, Tris-HCl, 0.1 g/l bacitracin) at 4° C. (about 10 ml of buffer per brain). The brains are then homogenized using a Potter device and the homogenate is placed in incubation for 30 minutes at 37° C. under agitation, then centrifuged twice for 35 minutes at 100,000×g at 4° C. The protein content of the membrane preparations is evaluated according to the Bradford method (BioRad, according to the manufacturers protocol).
Bonding of Labelled Agonists to the Guinea Pig Brain Membrane Preparation The membranes are placed in a buffer (50 mM of Tris-HCl, 5 mM of MgCl2 and 0.1 g/l of bacitracin) at the desired protein concentration (iodized CCK bond, 0.1 mg of protein/ml; iodized gastrin bond: 0.5 mg of proteins/ml). They are then incubated in the presence of a labelled ligand in a total volume of 500 μl (about 10 pM for the iodized CCK8, 20 pM for the iodized gastrin13), 50-80 minutes at 25° C., and in the presence or absence of cold agonists. The reaction is stopped with 3 ml of additional BSA buffer (20 g/l) at 4° C., the tubes are centrifuged at 10,000×g, the supernatant is drawn off and the radioactivity associated with the precipitate is evaluated with a γ counter.
As a reminder, the IC50 is the point on the concentration scale where inhibition reaches its midpoint. For `CC[C@H](C)[C@H](NC(=O)[C@@H]1CCCN1C(=O)[C@H](CCC(=O)O)NC(=O)[C@H](CC(=O)O)NC(=O)[C@@H](NC(=O)CNC(=O)[C@H](CCC(=O)O)NC(=O)[C@H](Cc1ccccc1)NC(=O)[C@H](CC(=O)O)NC(=O)[C@@H](NC(=O)[C@@H](N)CC(=O)O)C(C)C)[C@@H](C)O)C(=O)N[C@@H](Cc1ccccc1)C(N)=O` [Example 38, H-DVDFEGTDEPIF-NH2] (H-DVDFEGTDEPIF-NH2), the IC50 was 500 nM.

In the case of `CC(C)C[C@H](NC(=O)[C@H](C)NC(=O)[C@H](CCCCN)NC(=O)CNC(=O)[C@@H]1CCCN1C(=O)[C@@H](NC(=O)[C@H](C)NC(=O)CN)[C@@H](C)O)C(=O)N[C@H](C(=O)N[C@@H](C)C(=O)N[C@H](C(=O)N1CCC[C@H]1C(N)=O)[C@@H](C)O)C(C)C` [Example 39, H-GATPGKALVATP-NH2] (H-GATPGKALVATP-NH2), the IC50 is 400 nM.

Turning to `CC[C@H](C)[C@H](NC(=O)[C@H](Cc1ccccc1)NC(=O)[C@H](C)NC(=O)[C@H](CCSC)NC(=O)[C@@H](NC(=O)[C@H](CCC(=O)O)NC(=O)[C@@H]1CCCN1C(=O)CNC(=O)[C@H](CCCCN)NC(=O)[C@@H](N)CCSC)C(C)C)C(=O)N[C@@H](CCC(=O)O)C(=O)N[C@@H](CCC(N)=O)C(N)=O` [Example 40, H-MKGPEVMAFIEQ-NH2] (H-MKGPEVMAFIEQ-NH2), the IC50 was 130 nM.

For the compound `CC(C)C[C@H](NC(=O)[C@H](CCCCN)NC(=O)[C@H](CO)NC(=O)[C@@H](N)CCC(=O)O)C(=O)N[C@@H](CCC(=O)O)C(=O)N[C@@H](CCCNC(=N)N)C(=O)N[C@H](C(=O)N1CCC[C@H]1C(=O)N[C@@H](CCC(N)=O)C(=O)N[C@@H](CCCCN)C(=O)N[C@@H](CC(N)=O)C(=O)N[C@H](C(=O)N[C@@H](CCC(N)=O)C(N)=O)C(C)C)[C@@H](C)O` [Example 41, H-ESKLERTPQKNVQ-NH2] (H-ESKLERTPQKNVQ-NH2), the IC50 amounted to 250 nM.

As to `CC(C)[C@H](NC(=O)[C@@H](NC(=O)[C@H](CCCCN)NC(=O)[C@@H]1CCCN1C(=O)[C@@H](NC(=O)[C@@H](NC(=O)[C@H](C)NC(=O)[C@H](CCCNC(=N)N)NC(=O)[C@@H]1CCCN1)[C@@H](C)O)[C@@H](C)O)[C@@H](C)O)C(=O)N[C@@H](CCCNC(=N)N)C(=O)N[C@@H](CO)C(N)=O` [Example 42, H-PRATTPKTVRS-NH2] (H-PRATTPKTVRS-NH2), the IC50 amounted to 560 nM.

Take `CSCC[C@H](NC(=O)[C@H](CO)NC(=O)[C@H](CCSC)NC(=O)[C@H](CO)NC(=O)[C@H](CC(=O)O)NC(=O)[C@H](CCCCN)NC(=O)[C@H](CC(N)=O)NC(=O)[C@H](CCC(N)=O)NC(=O)[C@H](CCCNC(=N)N)NC(=O)[C@@H](NC(=O)[C@H](CCCCN)NC(=O)[C@@H](N)CCSC)[C@@H](C)O)C(=O)N[C@@H](CCCNC(=N)N)C(=O)N[C@@H](CO)C(N)=O` [Example 43, H-MKTRQNKDSMSMRS-NH2] (H-MKTRQNKDSMSMRS-NH2): the 50% inhibitory concentration (IC50) is 50 nM.

Take `CSCC[C@H](NC(=O)[C@H](CCCNC(=N)N)NC(=O)[C@@H](N)CCC(=O)O)C(=O)NCC(=O)N[C@@H](Cc1c[nH]cn1)C(=O)N[C@@H](Cc1c[nH]cn1)C(=O)N[C@@H](CC(=O)O)C(=O)N[C@@H](CC(=O)O)C(=O)N[C@@H](Cc1ccc(O)cc1)C(=O)N[C@@H](Cc1ccc(O)cc1)C(=O)N[C@@H](CO)C(=O)N[C@@H](CCCNC(=N)N)C(=O)N[C@@H](CC(C)C)C(=O)N[C@@H](CCCNC(=N)N)C(N)=O` [Example 44, H-ERMGHHDDYYSRLR-NH2] (H-ERMGHHDDYYSRLR-NH2): the IC50 worked out at 100 nM.

As to `CC[C@H](C)[C@H](NC(=O)[C@H](Cc1ccccc1)NC(=O)[C@H](CCC(=O)O)NC(=O)[C@@H]1CCCN1C(=O)[C@H](Cc1ccc(O)cc1)NC(=O)[C@H](Cc1c[nH]cn1)NC(=O)[C@H](CCC(=O)O)NC(=O)[C@@H](NC(=O)[C@@H](N)CC(C)C)C(C)C)C(N)=O` [Example 45, H-LVEHYPEFI-NH2] (H-LVEHYPEFI-NH2), the half-maximal inhibitory concentration (IC50) stood at 700 nM.

As for `CC(C)C[C@H](NC(=O)CNC(=O)[C@H](CC(C)C)NC(=O)[C@H](CC(N)=O)NC(=O)[C@H](CCCNC(=N)N)NC(=O)[C@H](CC(C)C)NC(=O)[C@@H](NC(=O)[C@H](CO)NC(=O)[C@@H](NC(=O)[C@H](CO)NC(=O)[C@@H](N)Cc1ccccc1)C(C)C)[C@@H](C)O)C(N)=O` [Example 46, H-FSVSTLRNLGL-NH2] (H-FSVSTLRNLGL-NH2), the half-inhibitory concentration (IC50) came out at 100 nM.

For `CC[C@H](C)[C@H](NC(=O)[C@H](CCCCN)NC(=O)[C@@H](NC(=O)[C@H](CC(C)C)NC(=O)[C@@H](NC(=O)CNC(=O)[C@@H](N)CO)[C@@H](C)O)[C@@H](C)CC)C(=O)N[C@@H](Cc1ccccc1)C(=O)N[C@@H](CCC(N)=O)C(=O)N[C@@H](C)C(=O)N[C@@H](CO)C(N)=O` [Example 47, H-SGTLIKIFQAS-NH2] (H-SGTLIKIFQAS-NH2), the IC50 was found to be 300 nM.

With `CSCC[C@H](NC(=O)[C@H](C)NC(=O)[C@H](CCCCN)NC(=O)[C@H](CC(N)=O)NC(=O)[C@H](C)NC(=O)[C@H](CCC(=O)O)NC(=O)[C@H](CCC(=O)O)NC(=O)[C@H](CCCCN)NC(=O)[C@H](C)NC(=O)[C@H](CC(=O)O)NC(=O)[C@H](CCC(N)=O)NC(=O)[C@H](CCC(=O)O)NC(=O)[C@H](C)NC(=O)[C@@H](N)Cc1ccccc1)C(N)=O` [Example 48, H-FAEQDAKEEANKAM-NH2] (H-FAEQDAKEEANKAM-NH2), the IC50 turned out to be 1470 nM.

Turning to `C[C@@H](O)[C@H](NC(=O)[C@@H](N)CCC(=O)O)C(=O)N[C@@H](CCCCN)C(=O)N[C@@H](Cc1c[nH]cn1)C(=O)NCC(=O)NCC(=O)N[C@@H](Cc1c[nH]cn1)C(=O)N[C@@H](CCCCN)C(=O)N[C@@H](CC(N)=O)C(N)=O` [Example 49, H-ETKHGGHKN-NH2] (H-ETKHGGHKN-NH2), the IC50 was determined as 330 nM.

Regarding `CC(C)C[C@H](NC(=O)[C@H](C)NC(=O)[C@H](CCC(=O)O)NC(=O)[C@H](CCC(N)=O)NC(=O)[C@@H](N)CC(C)C)C(=O)N[C@@H](CO)C(=O)N[C@@H](CCCCN)C(=O)N[C@@H](C)C(=O)N[C@@H](C)C(N)=O` [Example 50, H-LQEALSKAA-NH2] (H-LQEALSKAA-NH2), the IC50 turned out to be 1000 nM.

With `CC(C)[C@H](NC(=O)[C@H](C)NC(=O)[C@@H](NC(=O)[C@H](Cc1c[nH]c2ccccc12)NC(=O)[C@@H]1CCCN1)[C@@H](C)O)C(=O)N[C@@H](CC(=O)O)C(=O)N[C@H](C(=O)N[C@@H](CO)C(=O)N[C@H](C(=O)N[C@@H](CC(=O)O)C(N)=O)C(C)C)[C@@H](C)O` [Example 51, H-PWTAVDTSVD-NH2] (H-PWTAVDTSVD-NH2), the IC50 amounted to 140 nM.

Regarding `CC[C@H](C)[C@H](NC(=O)[C@H](C)NC(=O)[C@H](C)NC(=O)[C@@H](NC(=O)[C@H](CO)NC(=O)[C@H](C)NC(=O)[C@H](Cc1ccccc1)NC(=O)[C@H](Cc1ccc(O)cc1)NC(=O)[C@H](CCC(N)=O)NC(=O)[C@@H](NC(=O)[C@@H](N)C(C)C)[C@@H](C)CC)[C@@H](C)CC)C(=O)NCC(=O)N[C@@H](CC(=O)O)C(=O)N[C@@H](CCCNC(=N)N)C(N)=O` [Example 52, H-VIQYFASIAAIGDR-NH2] (H-VIQYFASIAAIGDR-NH2), the concentration for half-maximal inhibition (IC50) amounted to 7000 nM.

As to `CC(C)C[C@H](NC(=O)[C@@H](N)CCC(N)=O)C(=O)N[C@@H](Cc1c[nH]c2ccccc12)C(=O)N[C@@H](CC(=O)O)C(=O)N[C@H](C(=O)N[C@@H](C)C(=O)N[C@@H](Cc1c[nH]cn1)C(=O)N[C@@H](CO)C(=O)N[C@H](C(=O)N[C@@H](CCCCN)C(=O)N[C@@H](CCC(=O)O)C(=O)N[C@@H](CCCCN)C(=O)N[C@@H](Cc1ccccc1)C(N)=O)C(C)C)C(C)C` [Example 54, H-QLWDVAHSVKEKF-NH2] (H-QLWDVAHSVKEKF-NH2), the IC50 turned out to be 300 nM.

In the case of `CC[C@H](C)[C@H](NC(=O)[C@H](C)NC(=O)[C@@H](NC(=O)[C@H](CCC(=O)O)NC(=O)[C@H](CCC(=O)O)NC(=O)[C@@H](NC(=O)CNC(=O)[C@H](Cc1ccccc1)NC(=O)[C@@H](NC(=O)[C@H](CC(=O)O)NC(=O)[C@@H](N)[C@@H](C)O)[C@@H](C)CC)C(C)C)[C@@H](C)O)C(N)=O` [Example 56, H-TDIFGVEETAI-NH2] (H-TDIFGVEETAI-NH2), the IC50 is 730 nM.

Regarding `CC(C)[C@H](NC(=O)[C@H](C)NC(=O)[C@@H](NC(=O)[C@@H](NC(=O)[C@H](C)NC(=O)[C@@H](NC(=O)[C@@H](N)CCC(N)=O)[C@@H](C)O)C(C)C)[C@@H](C)O)C(=O)N[C@@H](CCC(=O)O)C(=O)N[C@@H](CCCCN)C(=O)N1CCC[C@H]1C(=O)N[C@@H](C)C(=O)N[C@@H](CC(=O)O)C(=O)N[C@@H](CCCCN)C(N)=O` [Example 57, H-QTAVTAVEKPADK-NH2] (H-QTAVTAVEKPADK-NH2), the IC50 was determined as 60 nM.

Turning to `CSCC[C@H](NC(=O)[C@H](C)NC(=O)[C@@H](NC(=O)[C@@H](N)CCC(=O)O)C(C)C)C(=O)N[C@@H](CC(=O)O)C(=O)N[C@@H](CC(=O)O)C(=O)N[C@@H](Cc1c[nH]cn1)C(=O)N[C@@H](CCCCN)C(=O)N[C@@H](CC(C)C)C(=O)N[C@@H](CO)C(=O)N[C@@H](CC(C)C)C(=O)N[C@@H](CC(=O)O)C(=O)N[C@@H](CCC(=O)O)C(=O)N[C@@H](CC(C)C)C(N)=O` [Example 58, H-EVAMDDHKLSLDEL-NH2] (H-EVAMDDHKLSLDEL-NH2), the IC50 stood at 860 nM.
